20 compounds from article PMC7076710, “Synthesis, Identification, and Structure–Activity Relationship Analysis of GATA4 and NKX2-5 Protein–Protein Interaction Modulators” (Journal of Medicinal Chemistry, 2019) can be followed below.

Like-named read-outs stand apart in the source and are kept apart here.

Holding throughout (format): cell-based
Experiment [1] addresses T1, GATA4–NKX2-5 transcriptional synergy (Mus musculus, UniProt P42582+Q08369).
T1 construct: expressed in transfected cells; host or cells: COS-1
In words: GATA4–NKX2-5 transcriptional synergy luciferase reporter assay (3xNKE reporter, COS-1 cells). For orientation: In a reporter assay the amount or activity of a reporter protein is the signal.

Experiment [2] deals with T2, NKX2-5 transcriptional activity (Mus musculus, UniProt P42582).
T2 construct: expressed in transfected cells; host or cells: COS-1
Nature of the experiment: NKX2-5 luciferase reporter assay (3xNKE reporter, COS-1 cells). The conditions noted are these: for activity at 3 µM: read-out: NKX.3µM; for activity at 10 µM: read-out: NKX.10µM. As for the experimental part:
(§1) To screen compounds for the GATA4–NKX2-5 interaction, we have developed a luciferase reporter assay based on their property to activate gene transcription synergistically through the NKX2-5 binding site on DNA.[28] In this assay, we transfected mammalian COS-1 cells with protein expression vectors for GATA4 and NKX2-5 proteins together with artificial luciferase reporter vector containing three high affinity binding sites for NKX2-5 (NKE). […] All 257 compounds were tested in two concentrations, 3 and 10 μM. Compounds either inhibited, enhanced, or had no effect on the GATA4–NKX2-5 transcriptional synergy. To investigate the selectivity of the active compounds, we tested their effects on NKX2-5 transcriptional activity by using the same luciferase reporter vector as in transcriptional synergy assay with three NKE sites (Figure 3B). Furthermore, we used GATA luciferase reporter assay to examine if compounds have an effect on GATA4 transcriptional activity. In this assay, we cotransfected the cells with a GATA4 protein expression vector and a reporter vector with tandem GATA4 binding sites (Figure 3C). Previously we have reported that compound 1 inhibited the GATA4–NKX2-5 transcriptional synergy at micromolar concentrations (IC50 = 3 μM).[29]
(§2) The plasmids expressing mouse GATA4 protein, pMT2-GATA4, and empty pMT2 were gifts from D. B. Wilson (Department of Pediatrics, St. Louis Children’s Hospital, St. Louis, MO).[44] The plasmids expressing mouse NKX2-5 protein, pMT2-NKX2-5, have been described earlier.[28] The luciferase reporter plasmid used in GATA4–NKX2-5 transcriptional synergy assay and NKX transcriptional assay, pGL3-3xHA, contains three high affinity binding sites for NKX2-5.[28] The luciferase reporter plasmid used in GATA transcriptional assay, NP-112, contains tandem GATA-sites and minimal promoter of rat brain natriuretic peptide (BNP) gene.[45] The pGL3-BNP luciferase reporter containing −534/+4 bp rat BNP proximal promoter described previously was used in hypertrophy assay.[46]
(§3) The primary screening assay of compounds’ effect on GATA4–NKX2-5 transcriptional synergy and COS-1 cell culturing has been described earlier.[33] […] (Kinnunen et al., unpublished observation). Briefly, COS-1 cells were seeded at 14 000 cells/well in Isoplate-96 microplates (PerkinElmer, Turku, Finland) and grown overnight. The cells were transfected with the luciferase reporter plasmid pGL3-3xHA 100 ng/well and equal amounts of expression plasmids pMT2-GATA4 and pMT2-NKX2-5 total 50 ng/well. To verify the synergistic effect, the cells were transfected with pMT2-GATA4 or pMT2-NKX2-5 25 ng/well, and the total DNA concentration was adjusted to 50 ng/well with empty pMT2 plasmid. In NKX2-5 and GATA4 luciferase reporter assays, the cells were transfected with reporter plasmid pGL3-3xHA or NP-112 (100 ng/well) and expression plasmid pMT2-NKX2-5 or pMT2-GATA4 (25 ng/well). The ratio of DNA/transfection reagent (Fugene 6, Promega) was 1:3 in all assays. The transfections were performed in serum and antibiotics free media for 6 h. The cells were treated with compounds or vehicle (0.1% DMSO) for 24 h, and the luminescence was measured using neolite Reporter Gene Assay System (PerkinElmer, Turku, Finland) and Victor2 plate reader (PerkinElmer, Turku, Finland).
(§4) Raw luciferase data were analyzed in Excel, and clear outliers were removed from triplicates by using the Grubb’s test. Data analysis was performed using R.[49] The luciferase data were first normalized on the basis of the combined mean value of controls. For data visualization and creation of figures, the following R packages were used: ggplot2, cowplot, RColorBrewer, and pheatmap. The heatmaps of the toxicity data were produced with GraphPad Prism 7.00 (GraphPad Software, La Jolla, CA). Statistical significance of luciferase reporter assay data was evaluated by randomized block analysis of variance followed by Dunnett’s post hoc test. […]

Experiment [3] addresses T3, GATA4 transcriptional activity (Mus musculus, UniProt Q08369).
T3 construct: expressed in transfected cells; host or cells: COS-1
In words: GATA4 luciferase reporter assay (tandem GATA-site reporter, COS-1 cells). Here is the method:
as §1, §2, §3, §4

Setting [4] is: COS-1, 3 µM, luciferase reporter activity, % of control.
Setting [5] is: COS-1, 10 µM, luciferase reporter activity, % of control.
[6] abbreviates: 3 µM compound, GATA4–NKX2-5 transcriptional synergy reporter, COS-1 cells.
Setting [7] is: 3 µM compound, NKX2-5 luciferase reporter, COS-1 cells.
[8] abbreviates: 3 µM compound, GATA4 luciferase reporter, COS-1 cells.
[9] abbreviates: 10 µM compound, GATA4–NKX2-5 transcriptional synergy reporter, COS-1 cells.
The mark [10] stands for this setting: 10 µM compound, NKX2-5 luciferase reporter, COS-1 cells.
[11] abbreviates: 10 µM compound, GATA4 luciferase reporter, COS-1 cells.
Where [12] appears, read: COS-1, compound 3 µM, luciferase reporter activity, spread in separate STDEV column.
Setting [13] is: COS-1, compound 10 µM, luciferase reporter activity, spread in separate STDEV column.
Setting [14] is: COS-1, compound at 3 µM, luciferase reporter activity, % of control.

T2 sequence (P42582 whole entry): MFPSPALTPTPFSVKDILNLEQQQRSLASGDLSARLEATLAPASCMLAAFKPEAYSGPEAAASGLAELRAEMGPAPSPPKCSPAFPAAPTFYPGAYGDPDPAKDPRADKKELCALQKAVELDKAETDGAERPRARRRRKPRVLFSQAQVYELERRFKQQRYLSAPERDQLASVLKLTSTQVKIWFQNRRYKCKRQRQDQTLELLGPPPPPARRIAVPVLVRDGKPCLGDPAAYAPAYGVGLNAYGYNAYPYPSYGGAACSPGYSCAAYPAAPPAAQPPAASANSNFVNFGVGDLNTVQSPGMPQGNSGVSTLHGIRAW
T1 sequence (Q08369 whole entry): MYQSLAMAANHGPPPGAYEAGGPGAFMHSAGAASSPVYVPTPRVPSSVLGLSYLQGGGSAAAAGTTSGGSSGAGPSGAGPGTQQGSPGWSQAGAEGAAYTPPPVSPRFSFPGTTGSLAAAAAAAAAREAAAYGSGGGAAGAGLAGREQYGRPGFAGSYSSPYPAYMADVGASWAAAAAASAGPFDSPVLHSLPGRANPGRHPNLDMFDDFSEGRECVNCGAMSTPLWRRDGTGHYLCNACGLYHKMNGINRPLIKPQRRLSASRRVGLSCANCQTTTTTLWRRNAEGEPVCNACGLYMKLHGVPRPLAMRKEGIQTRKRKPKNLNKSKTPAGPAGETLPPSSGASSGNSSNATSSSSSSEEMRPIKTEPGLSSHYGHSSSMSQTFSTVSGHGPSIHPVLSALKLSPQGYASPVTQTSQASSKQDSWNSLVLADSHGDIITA
T1 sequence (P42582 whole entry): as the sequence (P42582 whole entry) above
T3 sequence (Q08369 whole entry): as the sequence (Q08369 whole entry) above

On to `Cc1onc(-c2ccccc2)c1N=Cc1ccc(N(C)C)cc1` [SI108], for which the activity at 3 µM in experiment [1] (setting [4]) was determined as 69.3%; in experiment [2] (setting [4]), 99.3%; in experiment [3] (setting [4]) it was 109%. Moreover, the activity at 10 µM turned out to be 109% in experiment [1] (setting [5]), 103% in experiment [2] (setting [5]) and 97.6% in experiment [3] (setting [5]).

Take `Cc1onc(-c2ccccc2)c1COc1ccc(C(=O)OCCCC#N)cc1` [Compound 35b, 3-Cyanopropyl 4-[(5-Methyl-3-phenylisoxazol-4-yl)methoxy]benzoate]: the results for the activity at 3 µM in experiment [1] (setting [6]), in experiment [2] (setting [7]) and in experiment [3] (setting [8]) were 85.5%, 82.5% and 73.9%, respectively.

As for `CCN(c1ccc(NC(=O)c2c(C)noc2-c2cc(C)on2)cc1)C(C)C` [Compound 74], the activity at 10 µM in experiment [1] (setting [9]) was 96.6%; in experiment [2] (setting [10]), 88.8%; in experiment [3] (setting [11]), 125%. The activity at 3 µM in experiment [2] (setting [7]) stood at 85.2%; in experiment [3] (setting [8]), 103%.

`COc1ccc(-c2cc(NCc3ccc(N(C)C)cc3)n[nH]2)cc1` [SI92]: the values for the activity at 3 µM in experiment [1] (setting [12]), in experiment [2] (setting [12]) and in experiment [3] (setting [12]) were 76.3%, 84% and 74.4%, respectively. Besides, the activity at 10 µM in experiment [1] (setting [13]) amounted to 85.4%; in experiment [2] (setting [13]) it was 78.3%; in experiment [3] (setting [13]), 72.4%.

As for `CCN(CC)c1ccc(NC(=O)c2cn(C)nc2-c2cc(C)on2)cc1` [Compound 47f], the results for the activity at 3 µM in experiment [1] (setting [12]) and in experiment [2] (setting [12]) were 110% and 108%, respectively.

Take `CCC(=O)c1ccc(OCc2c(-c3ccccc3)noc2C)cc1` [Compound 34a, 1-[4-[(5-Methyl-3-phenylisoxazol-4-yl)methoxy]phenyl]propan-1-one]: the activity at 3 µM in experiment [1] (setting [4]) was 90.9%; in experiment [2] (setting [4]) it was 111%; in experiment [3] (setting [4]) it was 106%.

Regarding `CCN(CC)c1ccc(NC(=O)c2cn(C)cc2-c2cc(C)on2)cc1` [Compound 47m], the activity at 3 µM in experiment [1] (setting [12]) and in experiment [2] (setting [12]) was 116% in each case. Also, the activity at 10 µM in experiment [2] (setting [13]) was found to be 114%.

Take `Cc1onc(-c2ccccc2)c1C(=O)Nc1ccc(C(=O)OCCC#N)cc1` [Compound 76]: the activity at 3 µM was found to be 98.7% in experiment [1] (setting [12]), 132% in experiment [2] (setting [12]) and 97.1% in experiment [3] (setting [12]). Further, the results for the activity at 10 µM in experiment [1] (setting [13]), in experiment [2] (setting [13]) and in experiment [3] (setting [13]) were 104%, 126% and 73.4%, respectively.

Turning to `Cc1onc(-c2ccccc2)c1C(=O)Nc1nc(C(C)(C)C)cs1` [Compound 4k, N-[4-(tert-Butyl)thiazol-2-yl]-5-methyl-3-phenylisoxazole-4-carboxamide], the activity at 3 µM in experiment [1] (setting [12]) stood at 117%; in experiment [2] (setting [12]), 97.7%; in experiment [3] (setting [12]), 109%. For the same compound, the activity at 10 µM stood at 115% in experiment [1] (setting [13]) and 114% in experiment [3] (setting [13]).

`CCN(CC)c1ccc(-n2c(=O)c3c(C)onc3c3ccccc32)cc1` [Compound 78]: the “effect on GATA4–NKX2-5 transcriptional synergy (in words)” value in experiment [1] was “no effect”. For the same compound, the figures for the activity at 3 µM in experiment [1] (setting [6]), in experiment [2] (setting [7]) and in experiment [3] (setting [8]) were 84.1%, 105% and 101%, respectively. The activity at 10 µM is 100% in experiment [1] (setting [9]), 112% in experiment [2] (setting [10]) and 113% in experiment [3] (setting [11]).

With `CN(C)c1ccc(CNc2cc(-c3ccccc3)nn2-c2ccccc2)cc1` [SI94], the values for the activity at 3 µM in experiment [1] (setting [12]), in experiment [2] (setting [12]) and in experiment [3] (setting [12]) were 69%, 95.3% and 96.8%, respectively. Besides, the activity at 10 µM in experiment [1] (setting [13]) came out at 72.5%; in experiment [2] (setting [13]) it was 79%; in experiment [3] (setting [13]) it was 85%.

`CCN(CC)c1ccc(NC(=O)c2c(-c3ccoc3)noc2C)cc1` [Compound 39n]: the activity at 3 µM in experiment [1] (setting [6]) was 119%; in experiment [2] (setting [7]) it was 122%; in experiment [3] (setting [8]), 108%. Moreover, the activity at 10 µM in experiment [1] (setting [9]) is 105%; in experiment [2] (setting [10]), 106%.

For `CCN(CC)c1ccc(NC(=O)c2c(-c3ccccc3Cl)noc2C)cc1` [Compound 39k], the activity at 3 µM in experiment [1] (setting [14]) was 107%; in experiment [2] (setting [14]), 157%; in experiment [3] (setting [14]), 86.1%. The “effect on NKX2-5 transcriptional activity (in words)” value in experiment [2] was “did not affect”. The “effect on GATA4 transcriptional activity (in words)” value in experiment [3] (10 µM) is recorded as “slightly increased”. Besides, the activity at 10 µM in experiment [3] (COS-1, compound at 10 µM, luciferase reporter activity, % of control) amounted to 112%.

Consider `COc1cc(C(=O)Nc2cc(-c3ccncc3)n[nH]2)ccc1C` [SI123], for which the activity at 3 µM in experiment [1] (COS-1, GATA4-NKX2-5 transcriptional synergy luciferase reporter assay, compound at 3 µM) was found to be 93.2%; in experiment [2] (COS-1, NKX2-5 luciferase reporter assay, compound at 3 µM) it was 106%; in experiment [3] (COS-1, GATA4 luciferase reporter assay, compound at 3 µM), 105%. Further, the activity at 10 µM in experiment [1] (COS-1, GATA4-NKX2-5 transcriptional synergy luciferase reporter assay, compound at 10 µM) came out at 72.3%; in experiment [2] (COS-1, NKX2-5 luciferase reporter assay, compound at 10 µM), 90.4%; in experiment [3] (COS-1, GATA4 luciferase reporter assay, compound at 10 µM), 80.9%.

As for `CCN(CC)c1ccc(NC(=O)c2c(-c3cc(C)on3)noc2C)cc1` [Compound 39o], the values for the activity at 3 µM in experiment [1] (setting [12]), in experiment [2] (setting [12]) and in experiment [3] (setting [12]) were 97.1%, 101% and 89.2%, respectively. For the same compound, the activity at 10 µM in experiment [1] (setting [13]) amounted to 102%; in experiment [3] (setting [13]), 101%.

As to `Cc1onc(-c2ccccc2)c1C(=O)Nc1ccc(C(=O)OCCCC#N)cc1` [Compound 10b], the values for the activity at 3 µM in experiment [1] (setting [12]), in experiment [2] (setting [12]) and in experiment [3] (setting [12]) were 93%, 105% and 103%, respectively. Moreover, in experiment [3] (setting [13]), the activity at 10 µM turned out to be 114%.

As to `CCN(CC)c1ccc(NC(=O)c2cc(C)sc2-c2cc(C)on2)cc1` [Compound 47l], the activity at 3 µM in experiment [1] (setting [12]) was 105%; in experiment [3] (setting [12]), 119%. Also, the “effect on NKX2-5 transcriptional activity (in words)” value in experiment [2] is on record as “did not affect”.

In the case of `Cc1cc(-c2onc(C)c2C(=O)Nc2ccc3oc(-c4ccccc4)cc(=O)c3c2)no1` [Compound 73], the activity at 3 µM in experiment [1] (setting [6]) turned out to be 107%; in experiment [3] (setting [8]), 127%. For the same compound, the activity at 10 µM in experiment [1] (setting [9]) is 114%; in experiment [3] (setting [11]), 123%.

As to `CCN(CC)c1ccc(NC(=O)c2c(-n3cccc3)sc(C)c2C)cc1` [Compound 56], the activity at 3 µM came out at 93.8% in experiment [1] (setting [6]) and 102% in experiment [2] (setting [7]).

On to `CCN(CC)c1ccc(N(C)C(=O)c2c(-c3ccccc3)noc2C)cc1` [Compound 25a], for which the activity at 3 µM in experiment [1] (setting [4]) was 78.1%. The activity at 10 µM in experiment [2] (setting [5]) was determined as 101%.
